Columns and labels:
IL-6 [1] = experiment: LPS-induced IL-6 secretion in primary human monocyte-derived macrophages (ELISA); type: cell-based; conditions: for Donor 1 IL-6 Measurements Mean / Donor 2 IL-6 Measurements Mean / Donor 3 IL-6 Measurements Mean: LPS, baseline subtracted
Description: (§1) Primary human PMBC derived macrophages were seeded on day 0 at 3.0×10^4 cells per well in 96-well microplates (ThermoFisher) in Dulbecco's Modified Eagle Medium (DMEM) (Gibco) supplemented with penicillin-streptomycin (Hyclone) and 10% heat inactivated fetal bovine serum (HI-FBS) (Atlanta Bio) and incubated overnight at 37° C., 5% CO2. On day 1, cells were washed once with 150 μl per well DPBS (Gibco) and treated with 75 μl of: • a. […] The same medium described above with one amino acid at various concentrations including complete dropout. […] On day 3, the supernatant was collected and immediately frozen in −80° C. freezer. Cells were washed once with 150 μl DPBS and viability was assessed using the WST-8 Cell Proliferation Cytotoxicity Assay (Dojindo). […] Protein levels in supernatant samples were analyzed by ELISA for IL-6 and TNFα using commercially available kits (R&D Systems) according to manufacturer-supplied protocols.

TNFα = experiment: LPS-induced TNF-α secretion in primary human monocyte-derived macrophages (ELISA); type: cell-based; conditions: LPS, baseline subtracted
Description: as §1

[2] = test system: RBCs of healthy whole blood; experiment: RBC deformability (Elongation Index, LORRCA ektacytometry), ex vivo TBHP oxidation of healthy whole blood; type: cell-based, human; conditions: healthy donor 2, single amino acid treatments
Text: Whole blood from healthy African American and/or Hispanic donors was obtained from Research Blood Components, LLC based on the following donor selection criteria: Adult age (between 18 and 50 years), normal BMI (<30), and absence of other confounding clinical conditions. Whole blood from SCD donors were obtained from BioIVT based on the following donor selection criteria: Patients with genotypes HbSS, HbSC, HbS/β^0 and at least 1-2 months gap since last blood transfusion. Whole blood was shipped on ice on the same day as blood draw. Upon receipt, the blood sample was aliquoted and stored in the refrigerator until used for studies.
RBC deformability measurements were conducted with the Laser Optical Rotational Red Cell Analyzer (LORRCA) from RR Mechatronics in a temperature-controlled environment (37° C.). Briefly, an even layer of RBCs suspended in polyvinylpyrrolidone (PVP) is subjected to shear stress gradient (0.3 to 30 Pa) through two concentric cylinders and the resulting changes in RBC shape or deformability are measured by a laser beam diffraction pattern. The captured images of RBC shape in response to increasing shear stress are then analyzed by the LORRCA program to calculate Elongation Index (EI).
Healthy RBCs have higher deformability ≥0.5 EI and SCD RBCs have lower deformability or EI values as studied by LORRCA ektacytometry in the field. […] The induced hemolysis model in this disclosure involves use of tert-butyl hydroperoxide (TBHP) to lower EI of RBCs.
The ex vivo hemolysis study disclosed here involves overnight treatment of whole blood with vehicle as a control and specific amino acids followed by rapid oxidation (5 min) with TBHP. Method for oxidation of whole blood with tert-butyl hydroperoxide has been used in prior literature (Diederich L, et al, Front Physiol. 2018 May 11; 9:332). RBC deformability or shape changes are then measured with LORRCA ektacytometry.
Whole blood aliquots stored in the fridge were brought up to room temperature while gently shaking on a rocker at low speed for an hour to ensure gradual and uniform suspension of red blood cells prior to deformability measurements. Vehicle control used in the study was 1× Dulbecco's […]) and amino acids disclosed herein were added (at either final 10× or 2.5 mM concentration as indicated) to corresponding vehicle and amino acid treatment conditions. The samples were then incubated overnight at 37° C. The next day, 25 μl of whole blood was taken from each treatment condition and added to 5 mL Elon ISO viscous solution from RR Mechatronics. The sample was inverted 15-20 times to ensure proper mixing of the treated RBCs with the Elon ISO solution followed by loading the sample on LORRCA and capturing RBC deformability or shape measurements over the applied shear gradient. The remaining whole blood treatments were returned to incubator (37° C.) until deformability measurements were completed for all treatments. To the remaining whole blood treatment samples, TBHP solution (5.0-6.0 M in Decane, Sigma) was added at 2.5 mM final concentration from a 100 mM freshly prepared stock and incubated for further 5 min at 37° C. 25 μl of this TBHP-treated sample was immediately removed at the end of the 5 min incubation and added to the Elon ISO solution for RBC deformability measurement after oxidation. Included in the Tables 13-15 are EI measurements at ½ EImax shear stress 1.69 Pa and EImax shear stress 30 Pa from these studies and FIG. 1 captures EI measurements for all shear stress points for the indicated treatment conditions.

IL-6 [3] = experiment: Secreted IL-6 in HLMVEC treated with TNF-α (FirePlex); type: cell-based, human; conditions: HLMVEC + 0.5 ng/mL TNF-α, 24 h; amino acids 20x HMDB, Nac/Cit/Car 5 mM as bracketed
Description: (§2) Primary Human Lung Microvascular Endothelial Cells (HLMVEC; Lonza) were seeded at 6,000 cells per well in Endothelial Cell Growth Basal Medium-2 (Lonza) supplemented with Fetal Bovine Serum (FBS; Lonza), human EGF (Lonza), human VEGF (Lonza), R3-Insulin-like Growth Factor-1 (Lonza), ascorbic acid (Lonza), hydrocortisone (Lonza), human FGF-beta (Lonza), and gentamicin/amphotericin-b (Lonza) in a 96-well plate (Thermo Fisher). The cells were incubated for 45 minutes at room temperature, then incubated overnight at 37° C./5% CO2.
(§3) Following overnight incubation, cell were washed once with 150 μL of Dulbecco's phosphate buffered saline (DPBS; Gibco), and then treated with Endothelial Basal Medium MCB-131 (amino acid, glucose, sodium pyruvate, and phenol red free; US Biologicals) containing a defined custom amino acid concentration based on physiological concentrations in blood of patients with SCD (thus recapitulating observed metabolic imbalances such as the depletion of certain essential amino acids including arginine and aspartate and enrichment of certain non-essential amino acids including glutamate and asparagine), dialyzed FBS (Hyclone), human EGF (Lonza), human VEGF (Lonza), R3-Insulin-like Growth Factor-1 (Lonza), ascorbic acid (Lonza), hydrocortisone (Lonza), human FGF-beta (Lonza), and gentamicin/amphotericin-b (Lonza), glucose, 10 mM HEPES, sodium pyruvate, and sodium bicarbonate supplemented with one of the following: • a. PBS (vehicle control), • b. 0.5 ng/mL Tumor Necrosis Factor alpha (TNFα) and PBS, or; • c. 0.5 ng/mL TNF-α and amino acid treatments at 20× mean physiological concentrations in plasma based on values published in the Human Metabolome Database (HMDB) in PBS.
Supernatants were analyzed for IL-6 concentrations using a Human Cytokines FirePlex-HT Panel 1 kit (abcam) according to the manufacturer-supplied instructions. Particles were imaged on a high content imager (Molecular Devices), and results were interpolated from a standard curve with FirePlex Analysis Workbench Software (abcam) according manufacturer's recommendations.

HLMVEC = experiment: META-rank score, composite of VCAM1, ICAM1 and IL6 in the HLMVEC model; type: cell-based, human; conditions: HLMVEC + TNF-α; lower score = more optimal; 20x HMDB / 5 mM
Description: The ability of single amino acids and combinations to simultaneously impact these phenotypes was measured by a META-rank score (Tables 17 and 18). META-rank score is a composite measure that considers the optimal impact on all 3 phenotypes (e.g. decrease VCAM1, ICAM1, and IL6) in the HLMVEC model.

VCAM-1 = VCAM-1 cell integrated intensity in HLMVEC treated with TNF-α (immunofluorescence); type: cell-based, human
Description: as §2, §3
(§4) After 24 hours of treatment, cells were washed once with 150 μL of DPBS (Gibco), then fixed with 4% paraformaldehyde. Following fixation, cells were stained with anti-ICAM-1 [MEM-111] (mouse IgG2a anti-human; abcam) and anti-VCAM1 [1.4C3] (mouse IgG1, K anti-human; abcam) primary antibodies at 1000×, and 100× dilutions respectively. Cells were then stained with Goat anti-Mouse IgG2a Cross-Adsorbed Secondary Antibody, Alexa Fluor 594 (Invitrogen) and Goat anti-Mouse IgG1 Cross-Adsorbed Secondary Antibody, Alexa Fluor 647 (Invitrogen) secondary antibodies. Nuclei were stained with Hoechst 3342 (Life Technologies).
(§5) Antibody binding was detected by fluorescence microscopy using a high content imager (Molecular Devices). Images were analyzed using MetaXpress 6 software to determine the integrated intensity per cell for each wavelength corresponding to ICAM-1 or VCAM-1.

ICAM-1 = ICAM-1 cell integrated intensity in HLMVEC treated with TNF-α (immunofluorescence); type: cell-based, human; conditions: HLMVEC + 0.5 ng/mL TNF-α, 24 h; amino acids 20x HMDB, Nac/Cit/Car 5 mM as bracketed
Description: as §2, §3, §4, §5

[4] = test system: whole blood from healthy controls; experiment: ROS (DCF fluorescence) in whole blood of healthy control donors, H2O2-induced; type: cell-based, human
Description: (§6) Whole blood samples were appropriately diluted in Ca^2+- and Mg^2+-free Dulbecco's phosphate buffered saline (DPBS, Life Technologies) and the concentration of erythrocytes (RBC/mL) was measured on a Cellometer K2 Fluorescent Viability Cell Counter according to the manufacturer's RBC/AOPI protocol (Nexcelom Biosciences).
(§7) Cells were then diluted to 1×10^6 RBC/mL into either prewarmed 37° C. […] 2′-7′-dichlorofluorescin diacetate (DCF, Millipore Sigma), 20 mM in dimethyl sulfoxide (DMSO, Fisher) were added to a working concentration of 100 μM. Cells were incubated with dye for 15 minutes at 37° C., 5% CO2 in a tissue culture incubator, washed once, and resuspended in the 0.9 volumes of the same prewarmed 37° C. buffer with 5 minute spins at 500×g, accel/decal=5 in a swing arm centrifuge (Beckman Coulter). […] Where possible due to solubility constrains, pH-7.4-adjusted stock solutions of amino acids were used. Wells were mixed by pipetting and plates incubated at 37° C., 5% CO2 in a tissue culture incubator for 30 minutes. Optionally, 40 mM H2O2 (Millipore Sigma) freshly prepared in the same buffer was added to bring the concentration to 2 mM, wells mixed by pipetting, and plates were incubated an additional 30, 60, 120, or 240 minutes before fluorescence measurement of ROS signal on a Synergy H4 (BioTek) microplate reader with excitation=488 nm and emission=530 nm, and gain either set to autogain, 75, or 100.

[5] = test system: sickle cell disease patient blood; experiment: ROS (DCF fluorescence) in sickle cell disease patient whole blood; type: cell-based, human
Description: as §6, §7

[6] = Donor 1, Conc. 109 μM (baseline)

N=C(N)NCCC[C@H](N)C(=O)O [Arginine]
Donor 1 IL-6 Measurements Mean (IL-6 [1]; [6]): 0
Donor 1 IL-6 Measurements Mean (IL-6 [1]; Donor 1, Conc. 1088 μM): −181.36
Donor 1 IL-6 Measurements Mean (IL-6 [1]; Donor 1, Conc. 2720 μM): −186.57
Donor 1 IL-6 Measurements Mean (IL-6 [1]; Donor 1, Conc. 5440 μM): 357.4394
effect on LPS-induced IL-6 secretion (IL-6 [1]; Donor 1, Two Way ANOVA Dunnett): increased
Donor 2 IL-6 Measurements Mean (IL-6 [1]; Conc. 109 μM (baseline)): 2.37E−15
Donor 2 IL-6 Measurements Mean (IL-6 [1]; Conc. 1088 μM): −9.701
Donor 2 IL-6 Measurements Mean (IL-6 [1]; Conc. 2720 μM): −13.6102
Donor 2 IL-6 Measurements Mean (IL-6 [1]; Conc. 5440 μM): −12.4164
Donor 3 IL-6 Measurements Mean (IL-6 [1]; Conc. 109 μM (baseline)): 0
Donor 3 IL-6 Measurements Mean (IL-6 [1]; Conc. 1088 μM): 31.5786
Donor 3 IL-6 Measurements Mean (IL-6 [1]; Conc. 2720 μM): −7.503
Donor 3 IL-6 Measurements Mean (IL-6 [1]; Conc. 5440 μM): −6.81
TNF-α Measurements Mean (TNFα; [6]): 0
TNF-α Measurements Mean (TNFα; Donor 1, Conc. 1088 μM): −24.33
TNF-α Measurements Mean (TNFα; Donor 1, Conc. 2720 μM): 5.12
TNF-α Measurements Mean (TNFα; Donor 1, Conc. 5440 μM): 62.06
TNF-α Measurements Mean (TNFα; Donor 2, Conc. 109 μM (baseline)): 1.42E−14
TNF-α Measurements Mean (TNFα; Donor 2, Conc. 1088 μM): −12.7222
TNF-α Measurements Mean (TNFα; Donor 2, Conc. 2720 μM): −3.763
TNF-α Measurements Mean (TNFα; Donor 2, Conc. 5440 μM): −0.5738
TNF-α Measurements Mean (TNFα; Donor 3, Conc. 109 μM (baseline)): 3.55E−15
TNF-α Measurements Mean (TNFα; Donor 3, Conc. 1088 μM): 3.131
TNF-α Measurements Mean (TNFα; Donor 3, Conc. 2720 μM): −0.9669
TNF-α Measurements Mean (TNFα; Donor 3, Conc. 5440 μM): −1.767
EI over vehicle control, both ½ EImax and EImax [2]: higher than the vehicle

NC(=O)NCCC[C@H](N)C(=O)O [Cit, citrulline]
Secreted IL6 Median (IL-6 [3]): −0.270
EI over vehicle control, both ½ EImax and EImax [2]: higher than the vehicle
Meta-Rank (Table 18) (HLMVEC): 8
Metarank (Table 17) (HLMVEC): 16
VCAM-1 expression in HLMVEC (VCAM-1; 0.5 ng/mL TNF-α, amino acids at 20× HMDB, 24 hours): moderate effect
VCAM-1 Cell Integrated Intensity Median (VCAM-1; HLMVEC + 0.5 ng/mL TNF-α, 24 h, amino acids 20x HMDB, Nac/Cit/Car 5 mM as bracketed): −0.157
ICAM-1 Cell Integrated Intensity Median (ICAM-1): −0.118

N[C@@H](CS)C(=O)O [cysteine]
ROS measured in whole blood ([4]; healthy control donors treated with H2O2, dose-responsive): reduced
ROS measured in whole blood ([5]; both treated with H2O2 and untreated, in DPBS): reduced

N[C@@H](Cc1c[nH]c2ccccc12)C(=O)O [tryptophan]
ROS signal ([4]; healthy donor blood, 10×): increased
ROS signal ([5]; 10×): increased
